Laboratory results reported in US8343912B2, “Antibiotic compositions for the treatment of gram negative infections” (priority 2008, dated 2013).
Marks after values point to notes of the source that are not given here. Numbered stars: 1 amine (or outer) side, 2 acyl side, 3 side chain; on linkers, the order of the positions; unused ones are H or OH. Bridge positions count the residues as written; N and C are the ends. Square brackets hold non-standard residues; d marks the D form. Peptide text beside a SMILES is read from it. * marks the point of attachment. Octanoyl(6-Me) = CCC(C)CCCCC(=O)*; NH(2-ClPh) = Clc1ccccc1N*; Dab = NCC[CH](N)C(=O)O; CO = O=C([*:1])[*:2]

Legend:
P. aeruginosa [1] = assay: MIC90, broth microdilution, panel of Gram negative clinical isolates; type: cell-based, Pseudomonas aeruginosa; conditions: 100 strains
Description: (§1) To evaluate the potency and spectrum of compounds of Formula (I), (i.e., Compounds designated 5 and 6), a study was conducted that put together a panel of 455 Gram negative strains, which included multi-drug resistant clinical isolates selected from various surveillance programs. Table 3A lists the strains that were included in the study and the activity of Compound 5, Compound 6, and colistin (polymyxin E, abbreviated PME). Strains with acquired resistance to colistin and/or carbapenems and/or broad spectrum cephalosporins were pre-selected and included in all organism groups evaluated.
(§2) MIC testing was performed according to Clinical and Laboratory Standards Institute (CLSI) M7-A7 (2006) broth microdilution methods. Unless otherwise indicated, MIC values are provided in units of micrograms per milliliter.
(§3) One day prior to testing, individual colonies were isolated by streaking onto rich, non-selective Tryptic Soy agar with 5% lysed sheeps blood (TSAB) with incubation at 35-37° C. for 18-24 hours.
(§4) Cultures were prepared by touching 3-5 colonies into 3 mL of Cation adjusted Mueller Hinton Broth (caMHB) in a 14 mL tube (CaMHB was prepared and sterilized according to manufacturer's specifications). Cultures were grown at 37° C. 200 rpm for approximately four hours prior to density adjustment for addition to the MIC assay.
(§5) OD600 of growing cultures was measured and adjusted to approximately 10^5 colony forming units per mL (CFU/mL) in caMHB for MIC inoculation (approximately OD600 0.001).
(§6) Diluted cultures were used to inoculate 50 μL per well in broth microdilution assays (final volume 100 μl per well; compounds were prepared in two-fold dilutions).
(§7) Plates were incubated 16-20 hrs at 37° C., with shaking at 200 rpm.
(§8) OD600 was determined for all wells. Growth was defined as OD600>0.1. MICs were defined as the lowest concentration producing no visible turbidity (OD600<0.1).

S. maltophilia = assay: as above; type: cell-based, Stenotrophomonas maltophilia; conditions: 25 strains
Description: as §1, §2, §3, §4, §5, §6, §7, §8

E. coli = assay: as above; type: cell-based, Escherichia coli; conditions: 80 strains; some strains multi-drug resistant
Description: as §1, §2, §3, §4, §5, §6, §7, §8

K. pneumonia = assay: as above; type: cell-based, Klebsiella pneumoniae; conditions: 81 strains; some strains multi-drug resistant
Description: as §1, §2, §3, §4, §5, §6, §7, §8

Acinetobacter spp = assay: as above; type: cell-based; conditions: 81 strains
Description: as §1, §2, §3, §4, §5, §6, §7, §8

Citrobacter spp. = assay: as above; type: cell-based; conditions: 20 strains; some strains multi-drug resistant
Description: as §1, §2, §3, §4, §5, §6, §7, §8

Enterobacter = assay: as above; type: cell-based; conditions: 20 strains; some strains multi-drug resistant
Description: as §1, §2, §3, §4, §5, §6, §7, §8

P. aeruginosa #44 [2] = assay: MIC, broth microdilution; type: cell-based, Pseudomonas aeruginosa; conditions: for MIC against P. aeruginosa #44: Table 5, range of repeated tests
Description: as §2, §3, §4, §5, §6, §7, §8
P. aeruginosa #44 or K. pneumoniae #21 were grown in cation adjusted Mueller Hinton Broth (caMHB) (catalog #B12322; Fisher Scientific, Pittsburgh, Pa.) at 37° C. MIC testing was performed according to Clinical and Laboratory Standards Institute [CLSI, formerly National Committee for Clinical Laboratory Standards (NCCLS), Wayne, Pa.] guidelines for broth microdilution.
MIC testing was performed according to CLSI (formerly NCCLS) guidelines for broth microdilution.

P. aeruginosa [3] = assay: MIC, broth microdilution (Table 4); type: cell-based, Pseudomonas aeruginosa; conditions: for MIC P. aeruginosa: Table 4
Description: as §2, §3, §4, §5, §6, §7, §8

P. aeruginosa #44 [4] = assay: Lung infection in neutropenic mice; type: in vivo; conditions: for Log10 CFU/mL lung homogenate ± SD: lungs at 24 h; for ED−3log10 (dose for 3 log10 reduction in bacterial count vs water): lung infection, sc, Compound 5 value corrected for lot potency 711 μg/mg
Description: Infection was induced in normal immunocompetent or neutropenic mice by intranasal inoculation of P. aeruginosa #44. […] At 24 hours post-infection, mice were humanely euthanized and the lungs of the mice were removed, homogenized, serially diluted, and plated on agar, to quantitate the bacterial burden.
All of the test compounds were dissolved in sterile water for administration by subcutaneous (sc) injection. […] A series of dilutions of test compounds were prepared in water.
In the lung infection model using P. aeruginosa #44 as the infecting organism, CD-1 mice were made neutropenic by intraperitoneal (ip) administration with 150 mg/kg cyclophosphamide on day-4, followed by a second ip dose of 100 mg/kg cyclophosphamide on day-1. On day 0 a diluted, exponential-phase growing culture of P. aeruginosa #44 corresponding to 1×10^5 or 2.5×10^8 CFU respectively, in 0.1 mL of sterile saline, was inoculated by the intranasal route in mice. Just prior to inoculation, mice were anaesthetized with 60 mg/kg pentobarbital, ip. The actual concentration of bacteria in the inoculum was confirmed by determination of viable counts by dilution plating on tryptic soy agar plates. The number of CFU of bacteria was determined after an incubation of 16 h at 37° C.
Groups of five mice were used for each dose of the test compounds and the vehicle (water) control group. Each group received sc injections of test compounds or vehicle at 1 hour post-infection, and then at 6 hours post-infection for a total of 2 doses. In each study, there were three to five dose groups per test compound.
Eighteen hours after the last injection, the mice were euthanized by asphyxiation with CO2. The lungs were removed aseptically, homogenized in 4 mL of sterile, distilled water and dilution plated on tryptic soy agar plates to quantify bacterial CFU. The number of CFU of bacteria in lungs was determined after an incubation of 16 hours at 37° C. (the CFU per milliliter of homogenate).
The results were expressed as the geometric mean log10 CFU/mL±the standard deviation. The limit of detection was 10 CFU per mL of lung homogenate. Lungs were considered sterile when no CFU were detected on the agar. The efficacy of the test compounds was assessed by comparing the number of log10 CFU/mL measured in the infected and treated mice with control animals treated with water.
Dose response curves of test compounds were generated for each isolate. Regression lines were generated in Microsoft Excel and used to calculate the dose expected to produce a 3 log10 reduction in bacterial count as compared to water-treated group [ED−3 log 10 (mg/kg, sc, BID)].

[5] = 4.0 mg/kg BID sc, 1 and 6 h post-infection, water control 6.53

Structure (SMILES) | MIC90 P. aeruginosa (P. aeruginosa [1]) | MIC90 S. maltophilia (S. maltophilia) | MIC90 E. coli (E. coli) | MIC90 K. pneumonia (K. pneumonia) | MIC90 Acinetobacter spp (Acinetobacter spp) | MIC90 Citrobacter spp. (Citrobacter spp.) | MIC90 Enterobacter (Enterobacter) | MIC P. aeruginosa 44 (P. aeruginosa #44 [2]; Table 3B) | MIC against P. aeruginosa #44 (P. aeruginosa #44 [2]) | activity against bacteria compared with polymyxin B (P. aeruginosa [3]) | MIC P. aeruginosa (P. aeruginosa [3]) | Log10 CFU/mL lung homogenate ± SD (P. aeruginosa #44 [4]; [5]) | Log10 CFU/mL lung homogenate ± SD (P. aeruginosa #44 [4]; 8.0 mg/kg BID sc) | Log10 CFU/mL lung homogenate ± SD (P. aeruginosa #44 [4]; 12.0 mg/kg BID sc) | Log10 CFU/mL lung homogenate ± SD (P. aeruginosa #44 [4]; 16.0 mg/kg BID sc) | Log10 CFU/mL lung homogenate ± SD (P. aeruginosa #44 [4]; 20.0 mg/kg BID sc) | ED−3log10 (dose for 3 log10 reduction in bacterial count vs water) (P. aeruginosa #44 [4]) | fraction unbound (Serum protein binding)
CC(C)C[C@@H]1NC(=O)[C@@H](Cc2ccccc2)NC(=O)[C@H](CCN)NC(=O)[C@@H](NC(=O)[C@H](CCN)NC(=O)[C@@H](NC(=O)[C@H](CCN)NC(=O)Nc2ccccc2Cl)[C@@H](C)O)CCNC(=O)[C@H]([C@@H](C)O)NC(=O)[C@H](CCN)NC(=O)[C@H](CCN)NC1=O [Compound 5, (S)-4-amino-N-((2S,3R)-1-((S)-4-amino-1-oxo-1-((3S,6S,9S,12S,15R,18S,21S)-6,9,18-tris(2-aminoethyl)-15-benzyl-3-((R)-1-hydroxyethyl)-12-isobutyl-2,5,8,11,14,17,20-heptaoxo-1,4,7,10,13,16,19-heptaazacyclotricosan-21-ylamino)butan-2-ylamino)-3-hydroxy-1-oxobutan-2-yl)-2-(3-(2-chlorophenyl)ureido)butanamide] ({NH(2-ClPh)-CO}-[Dab]T[Dab][Dab][Dab][dF]L[Dab][Dab]T; lactam 4-C) | 2 micrograms/mL | >16 micrograms/mL | 2 micrograms/mL | 4 micrograms/mL | 4 micrograms/mL | 0.5 micrograms/mL | >16 micrograms/mL | 1 micrograms/mL | 1-2 micrograms/ml | as active or more active | 2 micrograms/ml | 5.49 ± 1.27 Log10 CFU/mL | 4.86 ± 1.18 Log10 CFU/mL | 4.13 ± 1.46 Log10 CFU/mL | 2.56 ± 0.34 Log10 CFU/mL | 2.51 ± 0.70 Log10 CFU/mL | 9.05^b mg/kg, BID | ~0.7
CCC(C)CCCCC(=O)NC(CCN)C(=O)NC(C(=O)NC(CCN)C(=O)NC1CCNC(=O)C(C(C)O)NC(=O)C(CCN)NC(=O)C(CCN)NC(=O)C(CC(C)C)NC(=O)C(Cc2ccccc2)NC(=O)C(CCN)NC1=O)C(C)O (stereo not shown) [Polymyxin B, polymyxin B, reference compound] ({Octanoyl(6-Me)}-[Dab]T[Dab][Dab][Dab]FL[Dab][Dab]T; lactam 4-C; configuration not given here) | 2 micrograms/mL | 8 micrograms/mL | 2 micrograms/mL | 2 micrograms/mL | 2 micrograms/mL | 1 micrograms/mL | >64 micrograms/mL |  | 1-2 micrograms/ml |  | 2 micrograms/ml | 6.48 ± 1.59 Log10 CFU/mL | 5.73 ± 1.92 Log10 CFU/mL | 3.47 ± 1.16 Log10 CFU/mL | 2.88 ± 1.07 Log10 CFU/mL | 2.71 ± 1.09 Log10 CFU/mL | 12.97 mg/kg, BID | ~0.44
